The subject of one series is Factor Xa (FXa). In words: Factor Xa inhibition assay. In kind it is biochemical. Particulars: up to 100 μM, absorbance at 405 nm. As to the method:
(§1) For the FVIIa, FXa and thrombin inhibition assays described below, an inhibition assay buffer containing 50 mM Tris, 5 mM CaCl2, 150 mM NaCl, 0.1% Tween 20, and 0.1% BSA (albumin, bovine, Sigma fraction V (Sigma)) at about pH 8.0 was used 2. For each of the inhibition assays, the total reaction volume was 100 μl and the assays were performed in 96-well plates.
About 30 μl inhibition assay buffer, 50 μl of 10 nM FXa and 10 μl of one of a series of dilutions of ZG-1400a were added to plate wells. The ZG-1400a was prepared in 10% DMSO and tested using half-log dilutions, starting at a final assay concentration of 100 μM and diluting to 1 nM. A negative (no inhibition) control contained 30 μl inhibition assay buffer, 50 μl of 10 nM FXa, and enough DMSO to give a 1% final DMSO concentration.
The test and control wells were incubated for about 10 min at room temperature. After the incubation period, 10 mM N-α-benzyloxycarbonyl-D-arginine-L-glycyl-L-arginyl-p-nitroanilide-dihydrochloride (S2765 substrate, Kabi) was added to each well.
(§2) This determination was made by reading absorbance at 405 nm on a ThermoMax microplate reader.

In a further series the test system is plasma clots. Put plainly: Plasma clot lysis assay. More on the design: species or system human. Particulars: 100 μM; for % Plasma Clot lysis: clots formed about 20 h, plasminogen and urokinase about 4 h. As to the method:
For this assay, 50 μl of one of a series of concentrations of iodoacetic acid, cerulenin, or ZG-1400a was added to 0.5 ml human citrated plasma (prepared from one blood donor) in 5 ml polypropylene tubes. The ZG-1400a and iodoacetic acid were individually prepared in 10% DMSO and tested using half-log dilutions, starting at a final assay concentration of 100 μM and diluting to 10 μM. Cerulenin was prepared in 10% ethanol and tested using half-log dilutions, starting at a final assay concentration of 100 μM and diluting to 10 μM.
Approximately 10^6 cpm ^125 I-fibrinogen (Amersham), 50 mM CaCl2 (20 mM above citrate concentration) and 5 units thrombin (bovine, Enzyme Research Labs) were added to each test and control tube. The tubes were incubated while rocking for 20 h at 37° C. Plasma clots formed in the tubes were washed three times with about 1 ml phosphate buffered saline (PBS). The plasma clots in each tube were counted after the PBS washes.
Approximately 2 ml of 50 mM Tris, pH 7.4, containing 50 mM NaCl, 28 μg plasminogen (human, Calbiochem), and 280 ng urokinase (human, Calbiochem) were added to the clots in test and control tubes. At 1, 2, and 4 h intervals, 25 μl aliquots of the samples were removed from each tube and counted.
The values shown in Table 3 represent the amount of lysis after plasma clots were formed for about 20 h and exposed to plasminogen and urokinase for about 4 h.

The subject of another series is FVIIa. In words: FVIIa inhibition assay. Format: biochemical. Particulars: up to 100 μM, absorbance at 405 nm. As to the method: as §1
For the FVIIa inhibition assay, about 30 μl of inhibition assay buffer, 25 μl of 20 nM recombinant FVIIa (Walt Kiesel, University of New Mexico), and 10 μl of one of a series of dilutions of ZG-1400a were added to plate wells. The ZG-1400a was prepared in 10% DMSO and tested using half-log dilutions, starting at a final assay concentration of 100 μM and diluting to 1 nM. A negative (no inhibition) control contained 30 μl inhibition assay buffer, 25 μl of 20 nM FVIIa, and enough DMSO to give a 1% final DMSO concentration.
The test and control wells were incubated for about 10 min at room temperature. After incubation, 25 μl of 20 nM tissue factor (Walt Kiesel, University of New Mexico) was added to the wells and incubated for a second 10 min period at room temperature. […]
as §2

The subject of a further series is thrombin. In words: Thrombin inhibition assay. In kind it is biochemical, bovine. Particulars: up to 100 μM, absorbance at 405 nm. As to the method:
as §1
About 30 μl inhibition assay buffer, 50 μl of 2 μg/ml thrombin (bovine, Enzyme Research Labs), and 10 μl of one of a series of dilutions of ZG-1400a were added to plate wells. The ZG-1400a was prepared in 10% DMSO and tested using half-log dilutions, starting at a final assay concentration of 100 μM and diluting to 1 nM. A negative (no inhibition) control contained 30 μl inhibition assay buffer, 50 μl of 2 μg/ml thrombin, and enough DMSO to give a 1% final DMSO concentration.
The test and control wells were incubated for about 10 min at room temperature. After the incubation period, 20 μl of 1 mM SPECTROZYME TH (H-D-hexahydrotyrosyl-L-alanyl-L-arginine-p-nitroanilide-diacetate salt, American Diagnostica, Inc., New York, N.Y.) was added to each well.
as §2

Another series deals with Factor IX (FIX). Put plainly: Factor IX inhibition assay. In kind it is biochemical. Particulars: up to 100 μM, absorbance at 405 nm. As to the method:
60 μl buffer, 10 μl of 40 nM FIX, and 10 μl of one of a series of dilutions of ZG-1400a were added to plate wells. The buffer contained 150 mM NaCl, 5 mM CaCl2, 25 mM Tris, pH 8.0, and 0.1% polyethyleneglycol (PEG). The ZG-1400a was prepared in 10% DMSO and tested using half-log dilutions, starting at a final assay concentration of 100 μM and diluting to 1 nM. A negative (no inhibition) control contained 60 μl buffer, 10 μl of 40 nM FIX, and enough DMSO to give a 1% final DMSO concentration.
The test and control wells were incubated approximately 10 min at room temperature. After incubation, approximately 10 μl of a mixture containing 200 nM FX (Walt Kiesel, University of New Mexico), 500 pM FVIII (Novo Nordisk) and 10 μM PCPS (phosphatidylcholine:phosphatidylserine (Sigma) in a 1:1 ratio) was added to each well. Then 10 μl of 1 mM S2765 substrate (Kabi) was added to each well.
In this assay, FIX converts FX to FXa. […] This determination was made by reading absorbance at 405 nm on a ThermoMax microplate reader.

Series [1] is described as follows: Solubility in ethanol / DMSO. Format: physicochemical.

Results on two molecules are retold here after patent US5710174A, “Factor XIIIA inhibitor” (Zymo Genetics, Inc., priority 1995, dated 1998).

In the case of `C[C@@H]1CCC/C=C\C(=O)Cc2cc(O)cc(O)c2C(=O)O1` [ZG-1400, R(-) enantiomer of cis-resorcylide], in the series on Factor Xa (FXa), the “inhibition of FXa activity” value is “not even the highest concentration of ZG-1400a assayed (100 μM) inhibited FXa activity”. Besides, in the series on plasma clots, the “susceptibility of plasma clots to lysis by plasminogen and urokinase” value is “significantly more susceptible to lysis”; the “% Plasma Clot lysis” value is 46%. Moreover, the “inhibition of FVIIa activity” value with FVIIa is recorded as “not even the highest concentration of ZG-1400a assayed (100 μM) inhibited FVIIa activity”. Further, in the series on thrombin, the “inhibition of thrombin activity” value is on record as “not even the highest concentration of ZG-1400a assayed (100 μM) inhibited thrombin activity”. Further, the “inhibition of FIX activity” value in the series with Factor IX (FIX) is “Not even the highest concentration of ZG-1400a assayed (100 μM) inhibited FIX activity”.

`CC=CCC=CCCC(=O)C1OC1C(N)=O` (stereo not drawn) [Cerulenin, 2,3-epoxy-4-oxo-7,10-dodecadienamide]: the solubility entry in series [1] is reported as “soluble in ethanol, but not DMSO”. For the same molecule, in the series on plasma clots, the “susceptibility of plasma clots to lysis by plasminogen and urokinase” value is on record as “significantly more susceptible to lysis”; the “% Plasma Clot lysis” value is recorded as 97%.
